Test results published in article PMC5976239 (Journal of medicinal chemistry, 2017).
In brackets after ≈: the same amount, converted by molar mass. Read-outs that look alike come from different tables or passages of the source.

What was measured:
[1] = tested on: C. albicans ATCC 10231 (strain A); assay: Time-kill assay; type: cell-based, Candida albicans; details: 24 h, compound 20 at 4× MIC, VOR at 1× and 4× MIC
[2] = tested on: C. albicans ATCC 90819(R) (D); assay: MIC determination by in vitro antifungal assay; type: cell-based; details: Candida albicans, ATCC90819, 48 h
[3] = tested on: C. albicans ATCC MYA-1003(R) (G); assay: MIC determination by in vitro antifungal assay; type: cell-based; details: Candida albicans, 48 h
[4] = tested on: C. albicans ATCC MYA-2876(S) (C); assay: MIC determination by in vitro antifungal assay; type: cell-based; details: Candida albicans, 48 h
[5] = tested on: C. albicans ATCC MYA-1237(R) (F); assay: MIC determination by in vitro antifungal assay; type: cell-based; details: Candida albicans, 48 h
[6] = tested on: C. albicans ATCC MYA-2310(S) (E); assay: MIC determination by in vitro antifungal assay; type: cell-based; details: Candida albicans, 48 h
[7] = tested on: C. glabrata ATCC 2001 (strain H); assay: Time-kill assay; type: cell-based, Candida glabrata; details: 24 h, compound 22 at 4× MIC, VOR at 1× and 4× MIC
[8] = tested on: C. albicans ATCC 64124(R) (B); assay: MIC determination by in vitro antifungal assay; type: cell-based; details: Candida albicans, ATCC64124, 48 h
HEK-293 = assay: In vitro cytotoxicity assay; type: cell-based; details: 24 h; for toxicity to mammalian cells (in words): 18 and 20 at 7.8 µg/mL
[9] = tested on: Candida albicans ATCC 10231 (A); assay: MIC determination in the presence and absence of FBS; type: cell-based; details: for antifungal activity in the presence of FBS (in words): strains A, J, and L, +10% FBS versus no FBS
BEAS-2B = assay: In vitro cytotoxicity assay; type: cell-based; details: 24 h; for toxicity to mammalian cells (in words): 18 and 20 at 7.8 µg/mL
[10] = tested on: Aspergillus flavus ATCC MYA-3631 (K); assay: MIC determination against filamentous fungi; type: cell-based; details: 48 h, read-out: MIC (MIC-0)
[11] = tested on: C. parapsilosis ATCC 22019 (strain J); assay: Time-kill assay; type: cell-based, Candida parapsilosis; details: 24 h, at up to 8× MIC
[12] = tested on: C. albicans ATCC 64124 (strain B) biofilms; assay: Biofilm assay
[13] = tested on: C. albicans ATCC 10231 (strain A); assay: Membrane permeabilization assay using propidium iodide staining; type: cell-based, Candida albicans; details: 1 h at 35 °C; 20 and 26 at 4 × MIC, KANB (C14) at 2 × MIC ([…]), FLC at 7.8 µg/mL
A549 = assay: In vitro cytotoxicity assay; type: cell-based; details: 24 h
[14] = tested on: Aspergillus nidulans ATCC 38163 (L); assay: MIC determination in the presence and absence of FBS; type: cell-based; details: ATCC38163, read-out: MIC, Aspergillus nidulans ATCC 38163 (L) (no FBS)
[15] = tested on: C. albicans, non-albicans Candida, and Aspergillus strains; assay: Antifungal activity over the panel of 13 fungal strains; type: cell-based; details: read-out: antifungal activity class based on MIC values
[16] = tested on: Aspergillus terreus ATCC MYA-3633 (M); assay: MIC determination against filamentous fungi; type: cell-based; details: 48 h, read-out: MIC (MIC-0)
[17] = tested on: Aspergillus nidulans ATCC 38163 (L); assay: MIC determination against filamentous fungi; type: cell-based; details: ATCC38163, 48 h, read-out: MIC (MIC-0)
Hemolytic activity assay = type: cell-based; details: mouse, murine red blood cells (mRBCs)
[18] = tested on: Candida albicans ATCC 10231 (A); assay: MIC determination by in vitro antifungal assay; type: cell-based; details: ATCC10231, 48 h, read-out: MIC (MIC-0)

MIC ([2]; read-out: MIC (MIC-0)) [µg/mL]	MIC [10] [µg/mL]	MIC ([3]; read-out: MIC (MIC-0)) [µg/mL]	increase in MIC in biofilms (SMIC50 and SMIC80 versus MIC in liquid cultures) [12]	MIC ([8]; read-out: MIC (MIC-0)) [µg/mL]	Compound	fungistatic or fungicidal activity (time-kill) [1]	fungistatic or fungicidal activity (time-kill) [7]	toxicity to mammalian cells (in words) (HEK-293)	antifungal activity in the presence of FBS (in words) [9]	toxicity to mammalian cells (in words) (BEAS-2B)	fungistatic or fungicidal activity (time-kill) [11]	toxicity to mammalian cells (in words) (A549)	hemolysis at 60 min, 7.8 µg/mL (Hemolytic activity assay) [%]	further results
					C[C@@H](c1ncncc1F)[C@](O)(Cn1cncn1)c1ccc(F)cc1F [VOR, voriconazole, reference compound]	fungistatic	fungistatic							MIC ([2]; read-out: MIC (MIC-2)): 1.95 µg/mL (≈ 5.58 µM); MIC ([3]; read-out: MIC (MIC-2)): 1.95 µg/mL (≈ 5.58 µM); MIC ([4]; read-out: MIC (MIC-2)): 1.95 µg/mL (≈ 5.58 µM); MIC ([5]; read-out: MIC (MIC-2)): 7.8 µg/mL (≈ 22.3 µM); MIC ([6]; read-out: MIC (MIC-2)): 0.975 µg/mL (≈ 2.79 µM); MIC ([8]; read-out: MIC (MIC-2)): 3.9 µg/mL (≈ 11.2 µM)
3.9 (≈ 8.41 µM)	0.24 (≈ 0.518 µM)	3.9 (≈ 8.41 µM)	4–16 fold	3.9 (≈ 8.41 µM)	CCCCCCCCCCN1CCN(CC(O)(Cn2cncn2)c2ccc(F)cc2F)CC1 (stereo not shown) [Compound 20, 2-(2,4-Difluorophenyl)-1-(1H-1,2,4-triazol-1-yl)-3-(4-decylpiperazine)propan-2-ol]	fungicidal		some toxicity	retained their full antifungal activity	some toxicity	fungistatic	no toxicity at up to 7.8 µg/mL		propidium iodide (PI) dye uptake by fungal cells [13]: neither compound 20 nor 26 (at 4 × MIC) induced cellular uptake of PI dye
1.95 (≈ 6.9 µM)	0.975 (≈ 3.45 µM)	1.95 (≈ 6.9 µM)	16–64 fold	0.975 (≈ 3.45 µM)	CCCCCCCCCCCCCCN1CCNCC1 [Compound 9, 1-Tetradecyl Piperazine]			toxic		toxic		toxic	93	MIC ([9]; Candida albicans, ATCC10231, read-out: MIC, Candida albicans ATCC 10231 (A) (no FBS)): 0.975 µg/mL (≈ 3.45 µM); MIC [14]: 0.975 µg/mL (≈ 3.45 µM); MIC [15]: 0.015 to 1.95 µg/mL (≈ 0.0531 to 6.9 µM); MIC [16]: 0.975 µg/mL (≈ 3.45 µM); MIC [17]: 0.975 µg/mL (≈ 3.45 µM); MIC ([4]; read-out: MIC (MIC-0)): 0.975 µg/mL (≈ 3.45 µM); MIC ([5]; read-out: MIC (MIC-0)): 1.95 µg/mL (≈ 6.9 µM); MIC ([6]; read-out: MIC (MIC-0)): 0.975 µg/mL (≈ 3.45 µM); MIC [18]: 0.975 µg/mL (≈ 3.45 µM)
			1–2 fold		CCCCCCCCCCCCN1CCN(CC(O)(Cn2cncn2)c2ccc(F)cc2F)CC1 (stereo not shown) [Compound 22, 2-(2,4-Difluorophenyl)-1-(1H-1,2,4-triazol-1-yl)-3-(4-dodecylpiperazine)propan-2-ol]		fungicidal		retained their full antifungal activity		fungistatic		> 50	cell survival (HEK-293; 7.8 µg/mL): less than 40%; cell survival (BEAS-2B; 7.8 µg/mL): less than 40%; cell survival (A549; 7.8 µg/mL): less than 40%
